This test deals with footpad swelling (SRBC challenge). The experiment in a line: Delayed Hypersensitivity Assay (SRBC-sensitized mice, footpad swelling). Format: in vivo, female BALB/C mice. Conditions: Mus musculus, one hour prior to challenge, 24 hrs post challenge, read-out: Inhibition % (percent inhibition of footpad swelling); for inhibition in vivo at 10 mg/kg: dosage 10.0 mg/kg p.o.; for inhibition in vivo at 1 mg/kg: dosage 1.0 mg/kg p.o.; for inhibition in vivo at 0.01 mg/kg: dosage 0.01 mg/kg p.o.; for inhibition in vivo at 0.1 mg/kg: dosage 0.1 mg/kg p.o.; for inhibition in vivo at 100 mg/kg: dosage 100.0 mg/kg p.o.; for inhibition in vivo at 10 µg/mL / inhibition in vivo at 100 µg/mL / inhibition in vivo at 10000 µg/mL / inhibition in vivo at 100000 µg/mL: Table II; for inhibition in vivo at 10 µg/mL: dosage 0.01 (mg/ml as printed) p.o.; for inhibition in vivo at 100 µg/mL: dosage 0.1 (mg/ml as printed) p.o.; for inhibition in vivo at 10000 µg/mL: dosage 10.0 (mg/ml as printed) p.o.; for inhibition in vivo at 100000 µg/mL: dosage 100.0 (mg/ml as printed) p.o. The protocol:
Animals (female BALB/C mice) are sensitized with 5×10^5 SRBC(sheep red blood cells)/0.5 ml by intravenous (tail vein) injection. One hour prior to challenge, animals are dosed with the drugs in question, p.o. On day four the animals are challenged with 5×10^8 SRBC/0.05 ml in the hind foot pad. Footpad volume is measured by a mercury displacement apparatus before challenge and 24 hrs post challenge. Percent inhibition of footpad swelling is calculated by comparing the increase in footpad volume of test group to the control group.

SMILES strings stand for the structures. Structures can show the parent of a compound that is named as a salt.

For `O=CC(c1ccccc1)c1nc(-c2ccncc2)cs1` (stereo not drawn) [CHO], the inhibition in vivo at 10 mg/kg (po, Table I) came to 63%.

As for `FC(F)(c1ccccc1)c1nc(-c2ccncc2)cs1` [F,F, 1,1-Difluoro-1-phenyl-1-[4-(4-pyridyl)-2-thiazolyl]-methane], where the note is “po, Table I”, the inhibition in vivo at 1 mg/kg is 49% and the inhibition in vivo at 10 mg/kg amounted to 63%.

Regarding `O=[N+]([O-])c1ccc(Cc2nc(-c3ccncc3)cs2)cc1` [p-NO2, 2-(p-Nitrobenzyl)-4-(4-pyridyl)thiazole], for the setting “po, Table I”, the inhibition in vivo at 0.01 mg/kg amounted to 32.4%, the inhibition in vivo at 0.1 mg/kg was 40.6%, the inhibition in vivo at 10 mg/kg was 65.2% and the inhibition in vivo at 100 mg/kg came to 82.2%.

`CC(=O)Nc1ccccc1Cc1nc(-c2ccncc2)cs1` [o-NHCOCH3, 2-(o-acetamidobenzyl)-4-(4-pyridyl)thiazole]: where the note is “po, Table I”, the inhibition in vivo at 0.1 mg/kg is 32.6%, the inhibition in vivo at 10 mg/kg was 52.8% and the inhibition in vivo at 100 mg/kg was found to be 75.5%.

`c1ccc(-c2ccc(Cc3nc(-c4ccncc4)cs3)cc2)cc1` [p-C6 H5]: the inhibition in vivo at 10 mg/kg (po, Table I) is 36.4%.

As for `N#CC(c1ccccc1)c1nc(-c2ccncc2)cs1` (stereo not drawn) [CN, 2-Phenyl-2-[4-(4-pyridyl)-2-thiazolyl]acetonitrile], under “po, Table I”, the inhibition in vivo at 0.1 mg/kg stood at 58% and the inhibition in vivo at 1 mg/kg came out at 46%.

In the case of `Oc1ccccc1Cc1nc(-c2ccncc2)cs1` [o-OH], where the note is “po, Table I”, the inhibition in vivo at 0.01 mg/kg was determined as 15.1% and the inhibition in vivo at 0.1 mg/kg came to 16.4%.

As to `Fc1ccc(Cc2nc(-c3ccncc3)cs2)cc1` [PF, 2-(p-fluoro-benzyl)-4-(4-pyridyl)thiazole], under “po, Table I”, the inhibition in vivo at 0.1 mg/kg amounted to 11.7%, the inhibition in vivo at 1 mg/kg was 60.8% and the inhibition in vivo at 10 mg/kg stood at 40.9%.

`Nc1ccccc1Cc1nc(-c2ccncc2)cs1` [o-NH2, 2-(o-Aminobenzyl)-4-(4-pyridyl)thiazole]: where the note is “po, Table I”, the inhibition in vivo at 0.01 mg/kg was found to be 82.2%, the inhibition in vivo at 0.1 mg/kg came out at 93.6% and the inhibition in vivo at 10 mg/kg was found to be 52.8%.

For the compound `c1ccc(Cc2nc(-c3ccnc(N4CCOCC4)c3)cs2)cc1` [Example 2-morpholino], the inhibition in vivo at 10 µg/mL is 26.1%, the inhibition in vivo at 100 µg/mL was found to be 33.8%, the inhibition in vivo at 10000 µg/mL stood at 44.3% and the inhibition in vivo at 100000 µg/mL was 45.1%.

On to `Cc1cccc(Cc2nc(-c3ccncc3)cs2)c1` [m-CH3, 2-(m-methyl-benzyl)-4-(4-pyridyl)thiazole dihydrochloride], for which, under “po, Table I”, the inhibition in vivo at 0.1 mg/kg was 49.1%, the inhibition in vivo at 10 mg/kg worked out at 64.8% and the inhibition in vivo at 100 mg/kg was determined as 71.2%.

Take `c1ccc(Cc2nc(-c3ccncc3)cs2)cc1` [H, 2-Benzyl-4-(4-pyridyl)thiazole]: under “po, Table I”, the inhibition in vivo at 0.01 mg/kg stood at 21.8% and the inhibition in vivo at 0.1 mg/kg was determined as 70.2%. For the same compound, the inhibition in vivo at 30 mg/kg (po, Table I, dosage 30 mg/kg p.o.) was 75.2%.

`OCC(c1ccccc1)c1nc(-c2ccncc2)cs1` (stereo not drawn) [CH2 OH, 2-Phenyl-2-[4-(4-pyridyl)-2-thiazolyl] ethanol]: for the setting “po, Table I”, the inhibition in vivo at 0.1 mg/kg was found to be 51%, the inhibition in vivo at 1 mg/kg worked out at 65% and the inhibition in vivo at 10 mg/kg stood at 27%.

For `N#Cc1cc(-c2csc(Cc3ccccc3)n2)ccn1` [Example 2-CN], the inhibition in vivo at 10000 µg/mL was determined as 36.6%.

With `NC(=O)Nc1ccccc1Cc1nc(-c2ccncc2)cs1` [o-NHCONH2], under “po, Table I”, the inhibition in vivo at 0.01 mg/kg is 40.4% and the inhibition in vivo at 10 mg/kg was 31.4%.

Turning to `[O-][n+]1ccc(-c2csc(Cc3ccccc3)n2)cc1` [Noxide, 4-[2-(Phenylmethyl)-4-thiazolyl]pyridine-1-oxide], the inhibition in vivo at 10 µg/mL was found to be 46%, the inhibition in vivo at 100 µg/mL came to 55.6%, the inhibition in vivo at 10000 µg/mL was determined as 71.8% and the inhibition in vivo at 100000 µg/mL was 93.4%.

On to `OC(c1ccccc1)c1nc(-c2ccncc2)cs1` (stereo not drawn) [OH, 1-Phenyl-1-[4-(4-pyridyl)-2-thiazolyl]methanol], for which, under “po, Table I”, the inhibition in vivo at 0.1 mg/kg amounted to 32%, the inhibition in vivo at 1 mg/kg came to 31% and the inhibition in vivo at 10 mg/kg stood at 55%.

For the compound `Clc1cc(-c2csc(Cc3ccccc3)n2)ccn1` [Example 2-Cl, 2-Benzyl-4-(2-chloro-4-pyridyl)thiazole], the inhibition in vivo at 10 µg/mL is 52.6%, the inhibition in vivo at 100 µg/mL stood at 64.7%, the inhibition in vivo at 10000 µg/mL worked out at 77.6% and the inhibition in vivo at 100000 µg/mL was 80.1%.
